Reference: patent US3951995A, “Method for industrial production of N-substituted dipropylacetamides” (Laboratorios Made, S.A., priority 1973, dated 1976)

Tests used:
[1] = Acute toxicity, lethal dose 50 (LD50), intraperitoneal; design: species or system albino rats I.C.R. Swiss; settings: rat, in vivo, ip
Description: The lethal dose 50 (LD50) has been determined on albino rats I.C.R. Swiss, of both sexes, weighing 24 ± 2 g.

[2] = tested on: hypnotic effect of the pentobarbital; test: Potentiation of barbiturates (sodium pentobarbital hypnotic effect); type: in vivo, albino rats I.C.R. Swiss; settings: for Asleep after 180 minutes (number of animals) / Awake after 180 minutes (number of animals): 30 min before sodium pentobarbital 60 mg/kg i.p., of 20; for potentiation of the hypnotic effect of the pentobarbital (in words): sodium pentobarbital 60 mg/kg i.p., I 180, II 35, III 18, Diazepam 3,6 mg/kg
Experimental: Albino rats I.C.R. Swiss weighing 25 ± 2 g have been used.
Lot (1): Sodium pentobarbital 60 mg/kg + I (180 mg/kg).
Lot (2): Sodium pentobarbital 60 mg/kg + II (35 mg/kg).
Lot (3): Sodium pentobarbital 60 mg/kg + III (18 mg/kg).
Lot (5): Sodium pentobarbital 60 mg/kg + distilled H2 O (control lot).
The number of animals awake after 180 minutes after the administration of the barbiturate are noted. The following results have been obtained according to the statistic test of Chi^2 : […]

[3] = tested on: convulsions and lethal effect of cardiazol; test: Anti-convulsant activity against cardiazol; type: in vivo, albino rats I.C.R. Swiss; settings: for number of animals with convulsions / number of dead animals: after 30 minutes cardiazol 1 mg/rat, 10 rats per lot
Experimental: There have been employed 4 lots of 10 rats per lot, which received:
Lot (1): I 180 mg/kg and after 30 minutes cardiazol 1 mg/rat.
Lot (2): II 35 mg/kg and after 30 minutes cardiazol 1 mg/rat.
Lot (3): III 18 mg/kg and after 30 minutes cardiazol 1 mg/rat.

[4] = II 35 mg/kg, cardiazol 1 mg/rat

## CCCC(CCC)C(=O)NCc1ccccn1 [Compound I, N-(2-picolyl)-dipropylacetamide]
[1]
  LD50: > 1600 mg/kg
[2]; I 180 mg/kg, control 1, p<0.001 (Chi^2)
  Asleep after 180 minutes (number of animals): 17
[2]; I 180 mg/kg, control 19, p<0.001 (Chi^2)
  Awake after 180 minutes (number of animals): 3
[2]
  potentiation of the hypnotic effect of the pentobarbital (in words): potentiates clearly the hypnotic effect of the pentobarbital
[3]; I 180 mg/kg, control 10
  number of animals with convulsions: 9
  number of dead animals: 7
[3]; I 180 mg/kg, cardiazol 1 mg/rat
  protection of the lethal effect of the cardiazol: 30%

## CCCC(CCC)C(=O)NCc1cccnc1 [Compound II, N-(3-picolyl)-dipropylacetamide]
[1]
  LD50: 95 mg/kg
[2]; II 35 mg/kg, control 1, p<0.001 (Chi^2)
  Asleep after 180 minutes (number of animals): 14
[2]; II 35 mg/kg, control 19, p<0.001 (Chi^2)
  Awake after 180 minutes (number of animals): 6
[2]
  potentiation of the hypnotic effect of the pentobarbital (in words): potentiates clearly the hypnotic effect of the pentobarbital
[3]; II 35 mg/kg, control 10
  number of animals with convulsions: 0
  number of dead animals: 0
[3]; [4]
  protection of the convulsions: 100%
  protection of the lethal effect of the cardiazol: 100%

## CCCC(CCC)C(=O)NCc1ccncc1 [Compound III, N-(4-picolyl) - dipropylacetamide]
[1]
  LD50: 264 mg/kg
[2]; III 18 mg/kg, control 4, p<0.001 (Chi^2)
  Asleep after 180 minutes (number of animals): 19
[2]; III 18 mg/kg, control 16, p<0.001 (Chi^2)
  Awake after 180 minutes (number of animals): 1
[2]
  potentiation of the hypnotic effect of the pentobarbital (in words): potentiates clearly the hypnotic effect of the pentobarbital
[3]; III 18 mg/kg, control 0
  number of dead animals: 0
[3]; III 18 mg/kg, control 5
  number of animals with convulsions: 1
[3]; III 18 mg/kg, cardiazol 1 mg/rat
  protection of the convulsion effect of cardiazol: 40%

## CN1C(=O)CN=C(c2ccccc2)c2cc(Cl)ccc21 [Diazepam, reference compound]
[2]; Diazepam 3,6 mg/kg, control 4, p<0.02 (Chi^2)
  Asleep after 180 minutes (number of animals): 15
[2]; Diazepam 3,6 mg/kg, control 16, p<0.02 (Chi^2)
  Awake after 180 minutes (number of animals): 5
[2]
  potentiation of the hypnotic effect of the pentobarbital (in words): potentiates clearly the hypnotic effect of pentobarbital, but not as much as the three compounds according to this invention
[3]; general statement
  anti-convulsant / anti-epileptic activity (in words): Results have been positive with cardiazol
